Assay results as given in patent publication US12336980B2, “Dosing regimen for a selective S1P1 receptor agonist” (Vanda Pharmaceuticals Inc., priority 2014, dated 2025).

Experiments:
Format in all cases: in vivo, human
healthy subjects [1] = assay: Holter ECG, mean hourly heart rate and AUEC, two-way cross-over up-titration study; details: for mean hourly HR change from baseline at nadir (Holter): p <0.05 vs. baseline; for mean hourly HR change from baseline (Holter): Day 3, 2 h post-dose
Method: (§1) In a single-center, double-blind, placebo-controlled, randomized, two-way cross-over study, 32 healthy subjects (15 males) received placebo on Day 1 followed by multiple-dose administration of either ponesimod or placebo (ratio 3:1). Ponesimod was administered alternately using regimen A (incremental dose increase from 2 to 20 mg) or B (10 mg for 7 days followed by a single-dose administration of 20 mg). Cardiodynamic (Holter and 12-lead ECG), pharmacokinetic, pharmacodynamic (total lymphocyte count), and safety variables were assessed.
(§2) The enrolled subjects came to the study center for each treatment period on Day −2 and participated in a run-in (all study procedures performed without study drug administration) on Day −1. On Day 1, subjects were randomized to one of the two possible sequences of the two up-titration regimens A and B (ratio 1:1). On Day 1, all subjects received placebo; the first study drug administration (or its matching placebo) occurred on Day 2. Regimen A consisted of the novel up-titration regimen: ponesimod was administered once daily (o.d.) orally at a dose of 2 mg on Day 2 and Day 3, 3 mg on Day 4 and Day 5, 4 mg on Day 6 and Day 7, 5 mg on Day 8, 6 mg on Day 9, 7 mg on Day 10, 8 mg on Day 11, 9 mg on Day 12, 10 mg on Day 13 and Day 14, and 20 mg on Day 15. The reference regimen (regimen B) was based on previous studies (Olsson T. et al., Oral ponesimod in relapsing-remitting multiple sclerosis: a randomised phase II trial. J Neurol Neurosurg Psychiatry. 2014; 85 (11): 1198-1208; and Vaclavkova A. et al., Oral ponesimod in patients with chronic plaque psoriasis: a randomised, double-blind, placebo-controlled phase 2 trial. Lancet. 2014; 384 (9959): 2036-2045) and consisted of an o.d. oral administration of ponesimod at a dose of 10 mg for 7 days (i.e., from Day 2 to Day 8) and 20 mg on Day 9. From Day 10 to Day 15 subjects received o.d. the matching placebo. In the placebo group (1:1 sex ratio), subjects received placebo from Day 1 to Day 15. All treatments were administered at the same time in the morning (fasted condition) with approximately 240 mL of water.
Cardiodynamic endpoints were assessed using Holter and 12-lead ECG. The 24-h Holter recordings were performed on Day -1, Day 1, Day 2, Day 9, Day 13, and Day 15. The 12-h Holter recordings were performed on the other days. In addition, Holter data were used to estimate the area under the effect curve (AUEC) for HR. 12-lead ECGs were performed from Day −1 to Day 16 at pre-dose and 1, 2, 3, 4, 5, 6, 8, 10, and 12 h after study drug administration. An additional 12-lead ECG recording was performed at EOFP and EOS. Heart rate nadir, Emax (maximum decrease of mean hourly HR from baseline, which was defined as the mean of the time-matched assessments measured on Day −1 and Day 1 pre-dose), and occurrence of values of interest (HR <45 bpm, HR decrease from baseline >20 bpm, and PR interval increase from baseline >20 ms), and AV-blocks (i.e., PR interval >210 ms) were obtained with 12-lead ECG.
Cardiodynamic and pharmacodynamic data are expressed as mean±SD. Repeated measure one-way ANOVAs followed by Tukey's multiple-comparisons tests were used to perform inter-group (i.e., placebo vs. regimen A vs. regimen B) comparisons. Student's t-tests were employed to perform intra-group (baseline vs. treatment) comparisons. Differences were considered to be statistically significant at p <0.05. SAS® version 9.2 (SAS Institute, Cary, NC, USA) was used for the statistical analysis and descriptive statistics of clinical data.

healthy subjects [2] = assay: Safety and tolerability, adverse events
Method: as §1, §2
(§3) Safety and tolerability were evaluated by monitoring adverse events (AEs), vital signs measurements (supine blood pressure), pulmonary function tests (PFTs; i.e., FEV1 and FVC), clinical laboratory, physical, and neurological examinations. Recording of blood pressure was performed at the same time-points as 12-lead ECG.

healthy subjects [3] = assay: Pulmonary function tests and clinical laboratory (hematology); details: hemoglobin, hematocrit, red blood cell count, basophils, eosinophils, neutrophils, monocytes, platelet count
Method: as §3

[4] = Plasma concentrations of ponesimod by LC-MS/MS
Source text: as §2, with “All treatments were administered at the same time in the morning (fasted condition) with approximately 240 mL of water.” left out
Blood samples of about 3 mL were collected in ethylene di-amine tetra acetic acid tubes at pre-dose and 3 h after study drug administration from Day 1 to Day 15 in each treatment period. […] Plasma concentrations of ponesimod were determined using a validated liquid chromatography coupled to tandem mass spectrometry assay with a lower limit of quantification of 1 ng/mL (Brossard P. et al., Pharmacokinetics and pharmacodynamics of ponesimod, a selective S1 P1 receptor modulator, in the first-in-human study. British journal of clinical pharmacology. 2013; 76 (6): 888-896). […]

- effect on PFT variables and hematology variables (healthy subjects [3]): No treatment effect
- concentration at 3 h ([4]; human, plasma, oral, 20 mg, regimen A, Day 15, read-out: plasma concentration 3 h after 20 mg of ponesimod): 144 ± 36.9 ng/mL
- plasma concentration 3 h after 20 mg of ponesimod ([4]; regimen B, Day 9): 144.0 ± 41.9 ng/mL
- 10 mg steady-state conditions attained ([4]; regimen B, visual inspection): Day 6
SMILES: CCC/N=C1\S/C(=C\c2ccc(OC[C@H](O)CO)c(Cl)c2)C(=O)N1c1ccccc1C [ponesimod, (R)-5-[3-chloro-4-(2,3-dihydroxy-propoxy)-benz[Z]ylidene]-2-([Z]-propylimino)-3-o-tolyl-thiazolidin-4-one]
- time for mean hourly HR to return to pre-dose values after administration (healthy subjects [1]; Day 2 first dose, regimens A and B): 4 to 5 h
- decrease in mean hourly HR following administration (healthy subjects [1]; Day 4 to last day of treatment): no further significant decreases
- mean hourly HR change from baseline at nadir (Holter) (healthy subjects [1]; regimen A (2 mg), Day 2 first dose, 2 h post-dose, mean±SD): −6±7.4 bpm
- mean hourly HR change from baseline (Holter) (healthy subjects [1]; regimen A (2 mg), mean±SD): −8±5.3 bpm
- mean AUEC0-12 for HR (healthy subjects [1]; regimen A, Day 2 first administration, mean±SD): −70.7±38.7 bpm·h
- time of nadir of mean hourly HR after administration (healthy subjects [1]; regimen A, Day 2 first dose): 2 h
- mean AUEC0-12 for HR (healthy subjects [1]; regimen A, Day 3, mean±SD): −105.5±49.0 bpm·h
- mean hourly HR change from baseline at nadir (Holter) (healthy subjects [1]; regimen B (10 mg), Day 2 first dose, 3 h post-dose, mean±SD): −12±6.9 bpm
- mean hourly HR change from baseline (Holter) (healthy subjects [1]; regimen B (10 mg), mean±SD): −9±5.7 bpm
- mean AUEC0-12 for HR (healthy subjects [1]; regimen B (ponesimod 10 mg), Day 3, mean±SD): −146.6±59.8 bpm·h
- mean AUEC0-12 for HR (healthy subjects [1]; regimen B, Day 2 first administration, mean±SD): −128.6±63.3 bpmh
- time of nadir of mean hourly HR after administration (healthy subjects [1]; regimen B, Day 2 first dose): 3 h
- time of serious AE of atrial fibrillation after administration (healthy subjects [2]; 20 mg ponesimod (regimen B)): 6 h
- time to resolution of serious AE of atrial fibrillation without sequelae (healthy subjects [2]; 20 mg ponesimod (regimen B)): ≤ 24 h
- serious AE (healthy subjects [2]; after 20 mg ponesimod (regimen B)): One serious AE of atrial fibrillation
- intensity of AEs (healthy subjects [2]; all treatment groups): mild to moderate
- most commonly reported AEs (healthy subjects [2]; on ponesimod, also among the most common in the placebo group): headache, dizziness, and procedural site reaction
- AEs of special interest related to cardiac function (sinus bradycardia and palpitations) (healthy subjects [2]; regimen B vs regimen A): reported more frequently during regimen B compared to regimen A
